Consider one compound from patent US20190352288A1, “MATRIX METALLOPROTEINASE (MMP) INHIBITORS AND METHODS OF USE THEREOF” (Foresee Pharmaceuticals Co., Ltd., priority 2018, published 2019).

In general, IC50 refers to the point on the concentration scale where inhibition reaches its midpoint.

In experiment [1] the target is T1, recombinant human MMP-7 (Homo sapiens, UniProt P09237).
T1 sequence (P09237 95-267): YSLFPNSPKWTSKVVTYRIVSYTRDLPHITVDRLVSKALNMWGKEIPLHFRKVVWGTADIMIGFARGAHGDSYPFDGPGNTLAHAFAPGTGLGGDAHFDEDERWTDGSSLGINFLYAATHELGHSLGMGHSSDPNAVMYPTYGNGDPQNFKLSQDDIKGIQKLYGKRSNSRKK
As to the kind of experiment: MMP selectivity assay, MMP-7. The settings on record: Table 2 selectivity profile. The format is biochemical. The method, then:
(§1) The inhibitory effect of compounds on the rate of cleaving fluorogenic MMP substrate (Enzo, BML-P128) by recombinant human MMP-12 catalytic domain (Enzo, BML-SE138) was carried out by methods known in the art. Briefly, to each well of a 96-well black opaque plate, all the reagents were sequentially added by pipetting, and the final reaction contained 4 nM of recombinant human MMP-12 catalytic domain, 4 μM of fluorogenic MMP substrate, and various concentrations (0.15 nM to 10,000 nM) of tested compound dilutions in HEPES buffer (pH 7.5) containing 10 mM of CaCl2), 0.01% Brij® 35 (polyoxyethylene (23) lauryl ether), and 0.1 mg/ml of BSA.
(§2) The enzyme and compounds were pre-incubated on a shaker to mix in wells. After an hour of mixing, fluorogenic substrate was added to each well. Reaction without enzyme was used as a blank control in the plate. The plate was then fed into a plate reader to measure fluorescence intensity at Excitation/Emission wavelengths of 340 nm/440 nm every 10 mins for at least 1 hour at 37° C. The IC50 of each compound in MMP-12 inhibition was determined by using a readout obtained at time point 30 minutes.
(§3) The MMP selectivity assay was performed by using other recombinant human MMPs, including MMP-1, MMP-2, MMP-3, MMP-7, MMP-8, MMP-9, MMP-10, MMP-13, and MMP-14. The IC50 of the compounds for the other recombinant human MMPs was determined as described above in Example 1, and are shown in Table 2.

The target in experiment [2] is recombinant human MMP-8 (Homo sapiens, UniProt P22894). As to the kind of experiment: MMP selectivity assay, MMP-8. The format is biochemical. The settings on record: Table 2 selectivity profile. On the procedure:
as §1, §2, §3

Sequence of recombinant human MMP-8 (P22894 101-467): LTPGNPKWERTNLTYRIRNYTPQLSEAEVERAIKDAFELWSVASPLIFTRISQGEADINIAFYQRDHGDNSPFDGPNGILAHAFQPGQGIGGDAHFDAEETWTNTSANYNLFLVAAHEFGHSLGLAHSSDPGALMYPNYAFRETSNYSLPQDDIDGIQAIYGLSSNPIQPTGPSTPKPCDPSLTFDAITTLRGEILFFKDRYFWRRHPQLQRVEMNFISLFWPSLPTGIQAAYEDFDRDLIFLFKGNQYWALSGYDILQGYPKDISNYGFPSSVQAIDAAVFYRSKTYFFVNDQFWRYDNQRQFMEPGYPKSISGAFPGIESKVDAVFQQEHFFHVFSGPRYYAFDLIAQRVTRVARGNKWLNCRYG

Regarding `Cc1cc(COc2ccc(Sc3ccncc3C3NC(=O)NC3=O)cc2)ccn1` (centres unmarked) [PC-16], the IC50 in experiment [1] is above 10 µM; in experiment [2], 1 to 10 µM.
